Key:
Assay type in all cases: in vivo
[1] = tested on: redroot pigweed (Amaranthus retroflexus, AMARE); assay: Pre-emerge test, greenhouse herbicide activity screening; conditions: pre-emerge, 14 days after application, rating scale 0-100
Procedure, shortened: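 Compounds in acetone were track-sprayed at 187 l/ha, 15–1000 g ai/ha, onto sandy loam pots. Pre-emerge seeds were sown one day before spraying, with surface watering afterwards. Post-emerge plants were at the 2–3 leaf stage and sprayed with 0.25% v/v non-ionic surfactant. Injury was rated 0–100 at 14 days.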

[2] = tested on: barnyardgrass (Echinochloa crus-galli, ECHCG); assay: as above; conditions: pre-emerge, 14 days after application, rating scale 0-100
Source text: (§1) A standard greenhouse herbicide activity screening system was used to evaluate the herbicidal efficacy and crop safety of these test compounds. Seven broadleaf weed species including redroot pigweed (Amaranthus retroflexus, AMARE, velvetleaf (Abutilon theophrasti, ABUTH), sicklepod (Cassia obtusifolia, CASOB), ivyleaf morningglory (Ipomoea hederacea, IPOHE), lambsquarters (Chenopodium album, CHEAL), common ragweed (Ambrosia artemisizfolia L., AMBEL), and cocklebur (Xanthium strumarium, XANST) were used as test species. Four grass weed species including green foxtail (Setaria viridis, SETVI), barnyardgrass (Echinochloa crus-galli, ECHCG), johnsongrass (Sorghum halepense, SORHA), and large crabgrass (Digitaria sanguinalis, DIGSA) were also used. In addition, three crop species, field corn (Zea mays L., var. Dekalb 535, CORN), soybean (Glycine max L., var. Pella 86, SOY), and is upland rice (Oryza sp., var. Tebonnet, RICE) were included.
(§2) All plants were grown in 10 cm square plastic pots which were filled with a sandy loam soil mix. For pre-emerge tests, seeds were planted one day prior to application of the test compounds. For post-emerge tests, seeds were planted 8-21 days prior to the test to allow emergence and good foliage development prior to application of the test substances. At the time of the post-emerge application, plants of all species were usually at the 2-3 leaf stage of development.
(§3) All test compounds Were dissolved in acetone and applied to the test units in a volume of 187 l /ha. Test materials were applied at rates ranging from 15 g ai/ha to 1000 g ai/ha using a track sprayer equipped with a TJ8001E even flow flat fan spray nozzle. Plants were arranged on a shelf so that the top of the canopy (post-emerge) or top of the soil surface (pre-emerge) was 40-45 cm below the nozzle. Pressurized air was used to force the test solution through the nozzle as it was mechanically advanced (via electrically driven chain drive) over the top of all test plants/pots. This application simulates a typical commercial field herbicide application.
(§4) In the post-emerge test, a commercial non-ionic surfactant was also included (0.25% v/v) to enhance wetting of the leaf surfaces of target plants. Immediately after application, test units of the pre-emerge applications were watered at the soil surface to incorporate the test materials. Subsequently, these test units were bottom-watered. Post-emerge test units were always bottom-watered.
(§5) At 14 days after application of the test materials, phytotoxicity ratings were recorded. A rating scale of 0-100 was used as previously described in Research Methods in Weed Science, 2nd edition, B. Truelove, Ed., Southern Weed Science Society, Auburn University, Auburn, Ala. 1977. Briefly, “0” corresponds to no damage and “100” corresponds to complete death of all plants in the test unit. This scale was used both to determine efficacy against weed species and damage to crop species. Herbicide activity data for various compounds of this invention, which are shown by compound No. in Tables 1-8, are shown in Tables 11 and 12.

[3] = tested on: green foxtail (Setaria viridis, SETVI); assay: as above; conditions: pre-emerge, 14 days after application, rating scale 0-100
Source text: as §1, §2, §3, §4, §5

[4] = tested on: ivyleaf morningglory (Ipomoea hederacea, IPOHE); assay: as above; conditions: pre-emerge, 14 days after application, rating scale 0-100
Source text: as §1, §2, §3, §4, §5

[5] = tested on: lambsquarters (Chenopodium album, CHEAL); assay: as above; conditions: pre-emerge, 14 days after application, rating scale 0-100
Source text: as §1, §2, §3, §4, §5

[6] = tested on: large crabgrass (Digitaria sanguinalis, DIGSA); assay: as above; conditions: pre-emerge, 14 days after application, rating scale 0-100
Source text: as §1, §2, §3, §4, §5

[7] = tested on: sicklepod (Cassia obtusifolia, CASOB); assay: as above; conditions: pre-emerge, 14 days after application, rating scale 0-100
Source text: as §1, §2, §3, §4, §5

[8] = tested on: velvetleaf (Abutilon theophrasti, ABUTH); assay: as above; conditions: pre-emerge, 14 days after application, rating scale 0-100
Source text: as §1, §2, §3, §4, §5

[9] = tested on: field corn (Zea mays L., var. Dekalb 535, CORN); assay: Pre-emerge test, crop safety; conditions: pre-emerge, 14 days after application, rating scale 0-100
Procedure, shortened: (§6)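 Compounds in acetone were track-sprayed at 15-1000 g ai/ha (187 l/ha) on sandy loam pots: pre-emerge one day after seeding, post-emerge at 2-3 leaf stage with 0.25% v/v non-ionic surfactant. Phytotoxicity was rated 14 days later on a 0 (no damage) to 100 (complete death) scale.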

[10] = tested on: upland rice (Oryza sp., var. Tebonnet, RICE); assay: Pre-emerge test, crop safety; conditions: pre-emerge, 14 days after application, rating scale 0-100
Procedure, shortened: as §6

[11] = tested on: barnyardgrass (Echinochloa crus-galli, ECHCG); assay: Post-emerge test, greenhouse herbicide activity screening; conditions: post-emerge, 14 days after application, rating scale 0-100
Source text: as §1, §2, §3, §4, §5

[12] = tested on: green foxtail (Setaria viridis, SETVI); assay: as above; conditions: post-emerge, 14 days after application, rating scale 0-100
Source text: as §1, §2, §3, §4, §5

[13] = tested on: ivyleaf morningglory (Ipomoea hederacea, IPOHE); assay: as above; conditions: post-emerge, 14 days after application, rating scale 0-100
Source text: as §1, §2, §3, §4, §5

[14] = tested on: lambsquarters (Chenopodium album, CHEAL); assay: as above; conditions: post-emerge, 14 days after application, rating scale 0-100
Source text: as §1, §2, §3, §4, §5

[15] = tested on: large crabgrass (Digitaria sanguinalis, DIGSA); assay: as above; conditions: post-emerge, 14 days after application, rating scale 0-100
Source text: as §1, §2, §3, §4, §5

[16] = tested on: redroot pigweed (Amaranthus retroflexus, AMARE); assay: as above; conditions: post-emerge, 14 days after application
Source text: as §1, §2, §3, §4, §5

[17] = tested on: sicklepod (Cassia obtusifolia, CASOB); assay: as above; conditions: post-emerge, 14 days after application, rating scale 0-100
Source text: as §1, §2, §3, §4, §5

[18] = tested on: velvetleaf (Abutilon theophrasti, ABUTH); assay: as above; conditions: post-emerge, 14 days after application, rating scale 0-100
Source text: as §1, §2, §3, §4, §5

[19] = tested on: field corn (Zea mays L., var. Dekalb 535, CORN); assay: Post-emerge test, crop safety; conditions: post-emerge, 14 days after application, rating scale 0-100
Procedure, shortened: (§7)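 Applied at 15–1000 g ai/ha from acetone in 187 l/ha spray volume. Post-emergence applications included 0.25% v/v non-ionic surfactant and reached plants sown 8–21 days before. Pre-emergence applications were incorporated by surface watering. Efficacy or crop damage was rated on a 0–100 scale after 14 days.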

[20] = tested on: upland rice (Oryza sp., var. Tebonnet, RICE); assay: Post-emerge test, crop safety; conditions: post-emerge, 14 days after application, rating scale 0-100
Procedure, shortened: as §7

COc1c(Cl)cc(F)c(-n2c(=O)cc(C(F)(F)F)n(C)c2=O)c1NNC(=O)c1ccc(F)cc1F [15-4]
phytotoxicity rating AMARE ([1]; 63 g ai/ha): 100 | phytotoxicity rating AMARE ([1]; 250 g ai/ha): 100 | phytotoxicity rating ECHCG ([2]; 63 g ai/ha): 80 | phytotoxicity rating ECHCG ([2]; 250 g ai/ha): 100 | phytotoxicity rating SETVI ([3]; 63 g ai/ha): 100 | phytotoxicity rating SETVI ([3]; 250 g ai/ha): 100 | phytotoxicity rating IPOHE ([4]; 63 g ai/ha): 100 | phytotoxicity rating IPOHE ([4]; 250 g ai/ha): 100 | phytotoxicity rating CHEAL ([5]; 63 g ai/ha): 100 | phytotoxicity rating CHEAL ([5]; 250 g ai/ha): 100 | phytotoxicity rating DIGSA ([6]; 63 g ai/ha): 100 | phytotoxicity rating DIGSA ([6]; 250 g ai/ha): 100 | phytotoxicity rating CASOB ([7]; 63 g ai/ha): 100 | phytotoxicity rating CASOB ([7]; 250 g ai/ha): 100 | phytotoxicity rating ABUTH ([8]; 63 g ai/ha): 100 | phytotoxicity rating ABUTH ([8]; 250 g ai/ha): 100 | phytotoxicity rating CORN ([9]; 63 g ai/ha): 90 | phytotoxicity rating CORN ([9]; 250 g ai/ha): 100 | phytotoxicity rating RICE ([10]; 63 g ai/ha): 80 | phytotoxicity rating RICE ([10]; 250 g ai/ha): 100 | Post-emerge Herbicidal Activity ECHCG (phytotoxicity rating) ([11]; 63 g ai/ha): 40 | Post-emerge Herbicidal Activity ECHCG (phytotoxicity rating) ([11]; 250 g ai/ha): 90 | Post-emerge Herbicidal Activity SETVI (phytotoxicity rating) ([12]; 63 g ai/ha): 50 | Post-emerge Herbicidal Activity SETVI (phytotoxicity rating) ([12]; 250 g ai/ha): 80 | Post-emerge Herbicidal Activity IPOHE (phytotoxicity rating) ([13]; 63 g ai/ha): 100 | Post-emerge Herbicidal Activity IPOHE (phytotoxicity rating) ([13]; 250 g ai/ha): 100 | Post-emerge Herbicidal Activity CHEAL (phytotoxicity rating) ([14]; 63 g ai/ha): 100 | Post-emerge Herbicidal Activity CHEAL (phytotoxicity rating) ([14]; 250 g ai/ha): 100 | Post-emerge Herbicidal Activity DIGSA (phytotoxicity rating) ([15]; 63 g ai/ha): 30 | Post-emerge Herbicidal Activity DIGSA (phytotoxicity rating) ([15]; 250 g ai/ha): 70 | Post-emerge Herbicidal Activity AMARE (phytotoxicity rating) ([16]; 63 g ai/ha, rating scale 0-100 (0 no damage, 100 complete death)): 70 | Post-emerge Herbicidal Activity AMARE (phytotoxicity rating) ([16]; 250 g ai/ha, rating scale 0-100): 100 | Post-emerge Herbicidal Activity CASOB (phytotoxicity rating) ([17]; 63 g ai/ha): 50 | Post-emerge Herbicidal Activity CASOB (phytotoxicity rating) ([17]; 250 g ai/ha): 80 | Post-emerge Herbicidal Activity ABUTH (phytotoxicity rating) ([18]; 63 g ai/ha): 100 | Post-emerge Herbicidal Activity ABUTH (phytotoxicity rating) ([18]; 250 g ai/ha): 100 | Post-emerge Herbicidal Activity CORN (crop damage rating) ([19]; 63 g ai/ha): 50 | Post-emerge Herbicidal Activity CORN (crop damage rating) ([19]; 250 g ai/ha): 90 | Post-emerge Herbicidal Activity RICE (crop damage rating) ([20]; 63 g ai/ha): 70 | Post-emerge Herbicidal Activity RICE (crop damage rating) ([20]; 250 g ai/ha): 95

Source: patent US6355799B1, “Substituted benzene compounds, process for their preparation, and herbicidal and defoliant compositions containing them” (ISK Americas Incorporated, priority 1997, dated 2002)
